Measured values from PubChem BioAssay AID1117350 (Cheminformatics & Chemogenomics Research Group (CCRG), …, 2015).
The source made the active and inactive calls. The rule behind the calls is not given here.

Test system: HeLa, chromatin condensation phenotype imaging
Test: condensed chromatin phenotype in HeLa cells – imaging, IC50, dose response (AID 1117350)

SMILES | IC50
CCc1nc(N)nc(N)c1-c1ccc(Cl)cc1 | > 10 µM (inactive)
C[n+]1c2cc(N)ccc2cc2ccc(N)cc21 (tested in a mixture with another compound) | 2.19 µM
CC(=O)[C@]1(O)Cc2c(O)c3c(c(O)c2[C@@H](O[C@H]2C[C@H](N)[C@H](O)[C@H](C)O2)C1)C(=O)c1ccccc1C3=O | 0.659 µM
CC(C)c1c(C(=O)Nc2ccccc2)c(-c2ccccc2)c(-c2ccc(F)cc2)n1CC[C@@H](O)C[C@@H](O)CC(=O)O | > 10 µM (inactive)
COC(=O)Nc1nc2ccc(Sc3ccccc3)cc2[nH]1 | 0.228 µM
COc1cccc2c1C(=O)c1c(O)c3c(c(O)c1C2=O)C[C@@](O)(C(C)=O)C[C@@H]3O[C@H]1C[C@H](N)[C@H](O)[C@H](C)O1 | 0.374 µM
COc1cc(-c2ccc(=O)[nH]n2)ccc1OC(F)F | > 10 µM (inactive)
CCCN(CCC)C(=O)C(CCC(=O)OCCCN1CCN(CCOC(=O)Cc2c(C)n(C(=O)c3ccc(Cl)cc3)c3ccc(OC)cc23)CC1)NC(=O)c1ccccc1 (stereo not given) | > 10 µM (inactive)
Oc1c(Cl)cc(Cl)c2cccnc12 | > 10 µM (inactive)
COC(=O)c1nc(Cl)c(Cl)nc1N | 0.868 µM
CCCCCCCCCCCC[N+](C)(C)Cc1ccccc1 | > 10 µM (inactive)
CCCCCCCCCCOCC(O)CN (stereo not given) | > 10 µM (inactive)
C=CC(=O)Nc1cc2c(Nc3ccc(F)c(Cl)c3)ncnc2cc1OCCCN1CCOCC1 | 4.29 µM
C[C@]12CC[C@@H]3c4ccc(O)cc4CC[C@H]3[C@@H]1CC[C@@H]2OC(=O)CCC1CCCC1 | > 10 µM (inactive)
Cc1ccc([N+](=O)[O-])[c]2c1[O][Hg]2 | 1.22 µM
CCN(CC)CCOc1ccccc1C(=O)CCc1ccccc1 | > 10 µM (inactive)
CCOc1ccc2nc3cc(N)ccc3c(N)c2c1 | > 10 µM (inactive)
Cc1ccccc1C(OCCN(C)C)c1ccccc1 (stereo not given) | > 10 µM (inactive)
COCc1c(C(C)C)nc(C(C)C)c(/C=C/[C@@H](O)C[C@@H](O)CC(=O)O)c1-c1ccc(F)cc1 | > 10 µM (inactive)
COc1ccc(/C=C/C(=O)c2ccc(OC)cc2OC)cc1 | > 10 µM (inactive)
Clc1ccccc1C(c1ccccc1)(c1ccccc1)n1ccnc1 | > 10 µM (inactive)
O=C(O)CCc1nc2ccccc2[nH]1 | > 10 µM (inactive)
Cc1nc(N)nc(N)c1-c1ccc(Cl)c(Cl)c1 | > 10 µM (inactive)
CCCCCCCCCCCCCCCC[N+](C)(C)Cc1ccccc1 | > 10 µM (inactive)
CC(=O)N(O)CCCCCNC(=O)CCC(=O)N(O)CCCCCNC(=O)CCC(=O)N(O)CCCCCN | > 10 µM (inactive)
CN(C)c1ccc2nc3ccc(=[N+](C)C)cc-3sc2c1 | > 10 µM (inactive)
O=c1[nH]cc(F)c(=O)[nH]1 | > 10 µM (inactive)

SMILES | IC50
C[C@@H]1C[C@@H]([C@H](O)CC2CC(=O)NC(=O)C2)C(=O)[C@@H](C)C1 | > 10 µM (inactive)
Nc1nc(=O)n([C@@H]2O[C@H](CO)[C@@H](O)[C@@H]2F)cc1I | > 10 µM (inactive)
CCN(CC)CCOc1ccc(C(O)(Cc2ccc(Cl)cc2)c2ccc(C)cc2)cc1 (stereo not given) | > 10 µM (inactive)
N[C@@H](Cc1ccc(N(CCCl)CCCl)cc1)C(=O)O | > 10 µM (inactive)
Oc1c(Cl)cc(Cl)cc1Sc1cc(Cl)cc(Cl)c1O | > 10 µM (inactive)
CCCOc1ccc2nc(NC(=O)OC)[nH]c2c1 | 0.0775 µM
O=C(CCBr)N1CCN(C(=O)CCBr)CC1 | > 10 µM (inactive)
COc1cc(NC(C)CCCN)c2ncccc2c1 (stereo not given) | > 10 µM (inactive)
O=C1C2CC=CCC2C(=O)N1SC(Cl)(Cl)Cl (stereo not given) | 6.14 µM (inactive)
O=C1[C@H]2CCCC[C@H]2C(=O)N1CCCCN1CCN(c2nsc3ccccc23)CC1 | > 10 µM (inactive)
O=C(Nc1ccc([N+](=O)[O-])cc1Cl)c1cc(Cl)ccc1O | > 10 µM (inactive)
Cc1ccc(CCn2c3c(c4cc(Cl)ccc42)CN(C)CC3)cn1 | > 10 µM (inactive)
CCCCCCCCCCCCCC[N+](C)(C)C | > 10 µM (inactive)
CC[C@H]1CN2CCc3cc(OC)c(OC)cc3[C@@H]2C[C@@H]1C[C@H]1NCCc2cc(OC)c(OC)cc21 | 0.948 µM
CC[n+]1c(-c2ccccc2)c2cc(N)ccc2c2ccc(N)cc21 | > 10 µM (inactive)
C[C@@H](O[C@H]1OCCN(Cc2n[nH]c(=O)[nH]2)[C@H]1c1ccc(F)cc1)c1cc(C(F)(F)F)cc(C(F)(F)F)c1 | > 10 µM (inactive)
O=c1[nH]c(=O)n([C@H]2C[C@H](O)[C@@H](CO)O2)cc1F | > 10 µM (inactive)
CCCCCCNC(=O)n1cc(F)c(=O)[nH]c1=O | > 10 µM (inactive)
O=C1C(I)=CC(=C(c2cc(I)c(O)c(I)c2)c2ccccc2C(=O)O)C=C1I | > 10 µM (inactive)
NC(N)=NN=C(/C=C/c1ccc([N+](=O)[O-])o1)/C=C/c1ccc([N+](=O)[O-])o1 | > 10 µM (inactive)
CO[C@@]12[C@H](COC(N)=O)C3=C(C(=O)C(C)=C(N)C3=O)N1C[C@@H]1N[C@@H]12 | > 10 µM (inactive)
CCN(CC)CCNc1ccc(CO)c2sc3ccccc3c(=O)c12 | > 10 µM (inactive)
CC(=O)Nc1ccn(C2COC(COC(=O)c3ccccc3)O2)c(=O)n1 (stereo not given) | > 10 µM (inactive)
CCC(C)n1ncn(-c2ccc(N3CCN(c4ccc(OC[C@H]5CO[C@](Cn6cncn6)(c6ccc(Cl)cc6Cl)O5)cc4)CC3)cc2)c1=O (stereo not given in full) | > 10 µM (inactive)
CCN(CC)CCOc1ccc(/C(=C(\Cl)c2ccccc2)c2ccccc2)cc1 | > 10 µM (inactive)
O[C@@H](CNC[C@H](O)[C@H]1CCc2cc(F)ccc2O1)[C@@H]1CCc2cc(F)ccc2O1 | > 10 µM (inactive)
O=c1[nH]c(=O)n([C@H]2C[C@H](O)[C@@H](CO)O2)cc1I | > 10 µM (inactive)

SMILES | IC50
CC(=O)Oc1ccc(C2(c3ccc(OC(C)=O)cc3)Oc3ccccc3NC2=O)cc1 | > 10 µM (inactive)
O=C(Nc1ccc(Br)cc1)c1cc(Br)cc(Br)c1O | > 10 µM (inactive)
CC(CC1c2ccccc2CCc2ccccc21)CN(C)C (stereo not given) | > 10 µM (inactive)
O=Cc1ccc(O)c(O)c1O | > 10 µM (inactive)
C1CN(P2(N3CC3)=NP(N3CC3)(N3CC3)=NP(N3CC3)(N3CC3)=N2)CCO1 (stereo not given) | > 10 µM (inactive)
CN1CC[C@H](c2c(O)cc(O)c3c(=O)cc(-c4ccccc4Cl)oc23)[C@H](O)C1 | 0.0807 µM
Nc1nc(Cl)nc2c1ncn2[C@@H]1O[C@H](CO)[C@@H](O)[C@@H]1F | > 10 µM (inactive)
CCN1/C(=C/C=C/c2sc3ccccc3[n+]2CC)Sc2ccccc21 | 4.48 µM
CC(C)C[C@H](NC(=O)[C@H](CCc1ccccc1)NC(=O)CN1CCOCC1)C(=O)N[C@@H](Cc1ccccc1)C(=O)N[C@@H](CC(C)C)C(=O)[C@@]1(C)CO1 | > 10 µM (inactive)
CC(C)OC(=O)OCOP(=O)(CO[C@H](C)Cn1cnc2c(N)ncnc21)OCOC(=O)OC(C)C | > 10 µM (inactive)
[O-][n+]1ccccc1SSc1cccc[n+]1[O-] | 2.23 µM
COc1ccc(-c2nc3ccc(C4=NNC(=O)CC4C)cc3[nH]2)cc1 (stereo not given) | > 10 µM (inactive)
CC(=O)O[C@@]12CO[C@@H]1C[C@H](O)[C@@]1(C)C(=O)[C@H](O)C3=C(C)[C@@H](OC(=O)[C@H](O)[C@@H](NC(=O)OC(C)(C)C)c4ccccc4)C[C@@](O)([C@@H](OC(=O)c4ccccc4)[C@H]21)C3(C)C | 0.00317 µM
CCCCCCCCCCCC(=O)[O][Sn]([CH2]CCC)([CH2]CCC)[O]C(=O)CCCCCCCCCCC | > 10 µM (inactive)
O=C(NOCC1CC1)c1ccc(F)c(F)c1Nc1ccc(I)cc1Cl | > 10 µM (inactive)
Cc1ccc(S(=O)(=O)NC(=O)NN2CC3CCCC3C2)cc1 (stereo not given) | > 10 µM (inactive)
Fc1ccc(C(OCCN2CCN(CCCc3ccccc3)CC2)c2ccc(F)cc2)cc1 | > 10 µM (inactive)
Cc1cc(=O)c2c(O)c3c(O)cc(=O)c4c3c3c(cc(O)c1c23)C(C)(C)C=4O | > 10 µM (inactive)
O=[N+]([O-])c1ccc(O)c2ncccc12 | > 10 µM (inactive)
COC(=O)[C@H]1[C@H]2C[C@@H]3c4[nH]c5cc(OC)ccc5c4CCN3C[C@H]2C[C@@H](OC(=O)/C=C/c2ccc(O)c(OC)c2)[C@@H]1OC | > 10 µM (inactive)
Cc1nc2ccccc2n1Cc1ccc(Cl)cc1 | > 10 µM (inactive)
CCCCCCCCCCCCNCCNCCNCC(=O)O | > 10 µM (inactive)
COC(=O)Nc1nc2ccc(C(=O)c3ccccc3)cc2[nH]1 | 0.0648 µM
Oc1c(I)cc(Cl)c2cccnc12 | > 10 µM (inactive)
COC(=O)Nc1nc2ccc(C(=O)c3cccs3)cc2[nH]1 | 0.0134 µM
Oc1c(I)cc(I)c2cccnc12 | > 10 µM (inactive)
